Literature values in patent publication US20240165064A1, “LONG-LASTING RESORBABLE SUBCUTANEOUS IMPLANT WITH PROLONGED RELEASE OF PRE-CONCENTRATED PHARMACOLOGICALLY ACTIVE SUBSTANCE IN POLYMER FOR THE TREATMENT OF HYPOTHYROIDISM, AND METHOD” (priority 2021, published 2024).

Tested on: patients with primary hypothyroidism
[1] = T3 group compared to T4 group, 6 weeks

SMILES: N[C@@H](Cc1cc(I)c(Oc2ccc(O)c(I)c2)c(I)c1)C(=O)O [T3, triiodothyronine]
- weight lost on average more than the group receiving T4 treatment (14 patients, three times a day for 6 weeks, T3 group compared to T4 group): 1.8 ± 1.9 kg
- decrease in low density cholesterol (non-HDL) [1]: 13.3±12.1%
- decrease in total cholesterol [1]: 10.9±10.0%
- reduction in apolipoprotein B [1]: 18.3±28.6%
- side effects (T3 treatment compared to T4 treatment, 6 weeks): without presenting significant side effects
